Assay results as given in patent publication US7892764B2, “System for seizure suppression” (priority 2006, dated 2011).

How the values were obtained:
Type in all cases: cell-based
ASIC current [1] = experiment: Effect of antiepileptic agents on ASIC current activated by pH drop from 7.4 to 6.0 in isolated neurons
Excerpt: Activation of ASICs may be involved in increased neuronal excitability and thus seizure generation. Inhibition of ASICs, on the other hand, is expected to be antiepileptic. To test this hypothesis further, we performed a study to examine the effect of currently available antiepileptic agents—particularly those agents for which the mechanism of action is not fully understood—on ASIC currents. We suspected that some of the current antiepileptic agents may, in fact, exert their antiepileptic effect partially through their inhibition of an ASIC current. Three commonly used antiepileptic agents were tested on an ASIC current activated by a pH drop from 7.4 to 6.0. […] Perfusion of lamotrigine (1 mM), however, inhibited the current by 43±13% (n=3, p<0.05, FIG. 15B), whereas perfusion of 1 mM felbamate reduced the amplitude of the ASIC current by nearly 60% (n=3. FIG. 15C).

ASIC current [2] = target: T1, ASIC current (Mus musculus, UniProt Q6NXK8); experiment: Acid-induced (pH 6.0) ASIC current in mouse cortical neurons, patch-clamp recording; conditions: read-out: IC50 (concentration at 50% inhibition) of ASIC current amplitude; pH drop 7.4 to 6.0, holding potential −60 mV
T1 sequence (Q6NXK8 1-526): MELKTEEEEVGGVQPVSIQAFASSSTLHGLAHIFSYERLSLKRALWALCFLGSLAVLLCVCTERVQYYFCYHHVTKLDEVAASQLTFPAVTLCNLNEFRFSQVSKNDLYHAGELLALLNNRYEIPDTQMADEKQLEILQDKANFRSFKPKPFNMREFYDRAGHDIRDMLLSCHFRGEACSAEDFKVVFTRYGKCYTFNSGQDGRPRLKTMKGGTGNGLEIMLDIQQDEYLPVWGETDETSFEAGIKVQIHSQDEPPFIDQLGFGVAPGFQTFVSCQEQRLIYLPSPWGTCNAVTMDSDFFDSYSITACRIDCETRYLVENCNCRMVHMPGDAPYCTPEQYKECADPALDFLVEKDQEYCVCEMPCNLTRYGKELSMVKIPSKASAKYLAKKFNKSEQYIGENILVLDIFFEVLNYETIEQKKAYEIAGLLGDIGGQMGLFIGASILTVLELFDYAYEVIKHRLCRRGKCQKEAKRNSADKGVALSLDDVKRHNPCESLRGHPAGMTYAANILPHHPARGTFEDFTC
Excerpt: Mouse cortical neurons in culture were monitored electrophysiologically by patch-clamp recording of current at a holding potential of −60 mV. An ASIC current was induced at this holding potential by dropping the extracellular pH from physiological pH (pH 7.4) to pH 6.0, in the presence of different concentrations of benzamil (FIG. 11) or EIPA (FIG. 12). The current traces obtained are presented in the upper part of FIGS. 11 and 12. […] Therefore, amiloride derivatives inhibit ASIC channel activity and may be used for seizure suppression in subjects prone to seizures and/or having a seizure.

ASICs = target: T2, ASICs (Mus musculus, UniProt Q6NXK8); experiment: Acid (pH 7.0/7.1)-induced membrane depolarization and neuronal firing, current-clamp recording; conditions: pH 7.0; amiloride 100 μM or synthetic PcTX1 20 nM
T2 construct: Primary neuronal cultures were prepared from embryonic Swiss mice at 15 to 16 days of gestation; endogenous in cells
T2 sequence (Q6NXK8 1-526): T1 sequence (Q6NXK8 1-526)
Excerpt: Unlike ischemia, only moderate pH changes (e.g., ˜0.3 pH unit) are reported in brain parenchyma during seizures (Chesler et al., 1988: Chesler et al., 1992), although pH in the synaptic cleft may be much lower (Chesler et al., 1992; Wemmie et al., 2006). […] One possibility is that voltage-clamp recording has relatively low sensitivity to resolve small current in whole-cell configuration. To provide more evidence that the decreases of pHo to the level seen in epilepsy can indeed activate the ASICs and cause neuronal excitation, we have also used current-clamp recording to study changes of membrane depolarization and neuronal firing by small changes of pHo. Due to the large input resistance of most CNS neurons (e.g., ˜500 MΩ), even a small membrane current (e.g., 10-20 pA, which is difficult to resolve in voltage-clamp recording in general) can induce significant membrane depolarization in current-clamp conditions. Mouse cortical neurons were used for current-clamp recordings 14 days after the culture.
Cortical neuronal culture. Primary neuronal cultures were prepared from embryonic Swiss mice at 15 to 16 days of gestation according to our previously described techniques (Xiong et al., 2004). In brief, cerebral cortices from 10 to 12 embryos were dissected and incubated with 0.05% trypsin-EDTA for 10 min, dissociated by trituration with a fire-polished glass pipette, and plated on poly-L-ornithine-coated culture dishes at a density of 0.5×10^6 cells per dish. Neurons were cultured with Neurobasal medium supplemented with B27 (Invitrogen). The cultures were maintained at 37° C. in a humidified 5% CO2 atmosphere incubator and were used for experiments after 12-14 days.
Patch clamp techniques. Whole-cell voltage-clamp and current-clamp recordings were performed as described in our previous studies (Xiong et al., 2004). […] Whole-cell currents were recorded using Axopatch 200B amplifiers with pCLAMP software (Axon Instruments, CA, USA). […]

mouse hippocampal slices = experiment: Low Mg2+-induced epileptiform bursting activity (evoked and spontaneous) in hippocampal slices; conditions: 200 ng/mL PcTX1 venom or 20 nM synthetic PcTX1, absence of Mg2+
Procedure: Limbic seizures (Avoli et al., 2002) are modeled by removing Mg^2+ from artificial cerebral spinal fluid (aCSF) in slices of hippocampal-entorhinal cortex, which triggers interictal-like bursting activity, or spontaneous ictal-like events (Wong et al., 2001; Anderson et al., 1986). In the presence of normal Mg^2+ (1.5 mM), stimulation of Schaffer collaterals induces single population spike or EPSP in the CA1 region of the hippocampus. […] Perfusion with Mg^2+-free aCSF for about 30 min evoked synchronous burst firing with the same stimulation intensity. In about, 30% of the slices, spontaneous clustered bursts developed in the absence of electrical stimulation. Bath perfusion of amiloride or PcTX1 for 10 min reduced the amplitude and frequency of evoked bursting activity (FIGS. 5A and 5B). Amiloride (100 μM) reduced the amplitude of the first and the second population spikes (from 1.2±0.2 mV to 0.5±0.2 mV and 0.6±0.03 mV to 0.2±0.05 mV, respectively (n=9: p<0.01, FIGS. 5A and 5B), and the number of population spikes (from 4.7±0.6 to 3.3±0.8, n=9, p<0.05)). Similarly, PcTX1 (200 ng/mL) attenuated the amplitude of the population spike (from 2.1±0.3 to 1.6±0.2 mV, n=9, p<0.05) and the number of spikes (from 4.2±0.6 to 3.0±0.6, p<0.05).
Preparation of hippocampal slices and brain slice recording. Hippocampal slices were obtained from 8- to 10-week-old mice. The protocol for brain-slice recording was approved by the Institutional Animal Care and Use Committee of Legacy Research. Animals were deeply anesthetized with isoflurane and decapitated. Brains were quickly removed and placed in ice-cold solution that contained: 125 mM sucrose, 2.5 mM KCl, 26 mM NaHCO3, 1.25 mM NaHPO4, 6.0 mM […], 0.5 mM CaCl2, and 10 mM glucose, and was saturated with 95% O2 and 5% CO2 (pH 7.4). Hippocamnpal slices were cut in 400 μm thickness in transverse plane with a vibratome (Leica VT 1000S) and placed in a slice holding chamber (BSC-PC Prechamber, Warner Instrument) and incubated in normal artificial cerebral spinal fluid (aCSF) that contained: 125 mM NaCl, 2.5 mM KCl, 26 mM NaHCO3, 1.25 mM […], 1.0 mM MgSO4, 2.0 mM CaCl2, and 10 mM glucose, and was saturated with 95% O2 and 5% CO2 (pH 7.4).
Following ˜60 min of incubation at room temperature, individual slices were transferred to a submerged slice chamber with a volume of 0.5 mL (Warner Instruments, Hamden, Conn.) and perfused with oxygenated aCSF (35° C.) at a rate of 3-4 mL/min. Recording electrodes were pulled from borosilicate glass and filled with aCSF. The population spike and the field excitatory postsynaptic potentials (fEPSP) were recorded in stratum pyramidale and striatum radiatum of hippocampal CA1 region, by stimulating Schaffer Collaterals.
For low Mg^2+ induced epileptic burst activity, Mg^2+-free aCSF was perfused to the slices for ˜30 min. For stimulus-train induced bursting discharges (STIB), each stimulation train consisted of 120 pulses at 60 Hz and each pulse was 100 μsec in duration (Stasheff et al., 1985). A 10-minute interval of non-stimulation was provided between successive trains of high frequency stimulation. Stimulation electrodes were located in striatum radiatum between CA1 and CA3 region. The population spikes were recorded from striatum pyramidale of the CA3 region.
Pharmacological and electrical bursting models. To induce epileptic burst discharges, Mg^2+-free aCSF was applied. Mg^2+-free aCSF was obtained by simply omitting MgSO4 from aCSF.

For `NC(=O)OCC(COC(N)=O)c1ccccc1` [felbamate], which “inhibition of ASIC current amplitude” value (ASIC current [1]; 1 mM, pH drop from 7.4 to 6.0) is on record?
Its value is ~60%.

With `CCC1(C)CC(=O)NC1=O` (stereo not shown) [ethosuximide] as the compound, how does the “effect on amplitude of the ASIC current” value (ASIC current [1]; 1 mM, bath application 5 min, pH drop from 7.4 to 6.0) read?
Its value is “did not affect”.

With `CCN(c1nc(N)c(C(=O)N=C(N)N)nc1Cl)C(C)C` [EIPA, 5-(N-ethyl-N-isopropyl)-amiloride] as the compound, how does the IC50 (ASIC current [2]) read?
Its IC50 is ~20 µM.

Which “effect on desensitization of the ASIC current” value (ASIC current [1]) does the source give for `Nc1nnc(-c2cccc(Cl)c2Cl)c(N)n1` [lamotrigine] here?
The value was “enhances the desensitization”.

And the “inhibition of ASIC current amplitude” value (ASIC current [1]; 1 mM, pH drop from 7.4 to 6.0)?
Its value is 43±13%.

How did the “effect on acid-induced neuronal excitation (membrane depolarization, firing rate)” value (ASICs) turn out when “synthetic PcTX1: chemically synthesized PcTX1 peptide, used at 20 nM” was run?
Its value is “largely and significantly reduced”.

And the “effect on frequency of spontaneous clustered bursting activity” value (mouse hippocampal slices)?
Its value is “reduced the frequency”.
